Where two headings read alike, the source gives them in different places.
Legend:
[1] = Experimental: (§1) Subjects are then discharged and treatment continued twice a day for four weeks. Subjects are monitored for a further four weeks, bringing the total study time to 10 weeks. Sputum is collected by induction with nebulised 3% hypertonic saline at 8-10 L/min for […]. Samples are collected prior to treatment, and at 2, 6 and 10 weeks, processed according to the relevant protocol and stored at −80° C.
(§2) Expectorated sputum is stored in RNAlater, total RNA is extracted using a Qiagen RNEasy® or similar extraction kit, converted into cDNA, and inflammatory markers are monitored using qPCR as described by Sivaneson et al. (Sivaneson, M., Mikkelsen, H., Ventre, I., Bordi, C., and Filloux, A. (2011). Two-component regulatory systems in Pseudomonas aeruginosa: an intricate network mediating fimbrial and efflux pump gene expression. Mol Microbiol 79, 1353-1366) and quantified relative to known housekeeping genes, such as actin and/or GAPDH.
(§3) Expectorated sputum is frozen directly without processing and assayed for inflammatory markers as above. As a measure of structural damage, levels of matrix metalloproteinases (MMPs) and tissue inhibitors of metalloproteinases (TIMPs) are measured using gelatin zymography and immunoassays, respectively, as previously described (Gaggar et al., Eur Respir J. 2011 38(3): 721-727; Garratt et al., Eur Respir J. 2015 46(2):384-94). The amount of iron in the sputum is quantified by ICP-MS as previously described (Hunter et al., MBio 2013, 4(4):1-8). The amount of iron-binding proteins is assessed using immunoassays. Oxidative stress is assessed by measuring glutathione (GSSG and GSH) using immunoassays as previously described (Kettle et al., Eur Respir J. 2014 44(1):122-9).

[2] = in vivo; cited from earlier work
[3] = remark: listed apart in the source
Experimental: Subjects were then discharged and treatment was continued twice a day for four weeks. Patients were monitored for a further four weeks, bringing the total study time to 10 weeks. At each study visit, lung function was measured by spirometry. Data was recorded as the best of three attempts, and results were expressed as % predicted.

[4] = tested on: P. aeruginosa; settings: in vivo; cited from earlier work
[5] = in vivo; cited from earlier work; remark: listed apart in the source
[6] = remark: listed apart in the source
Experimental: Subjects with CF who need treatment with dry powder tobramycin are allocated into four cohorts and receive 112 mg dry powder twice a day for 28 days. In addition, Cohort 1 (patients>18 years) receives ascending doses of dry powder CaEDTA (37.5 mg BID for 1 week; 75 mg BID for 2 weeks, 150 mg BID for 1 week). Patients in cohort 2 (>18 years) receive CaEDTA (37.5 mg BID for 1 week; 75 BID for 2 weeks; 75 mg QID for 1 week). Patients in cohort 3 (12-18 years) receive CaEDTA (37.5 mg BID for 1 week; 75 mg BID for 2 weeks, 150 mg BID for 1 week. Finally, a control cohort receives tobramycin alone for 28 days.
Sputum samples are collected weekly and assessed for markers of infection and inflammation. Bacteria are monitored by sputum colony counts. As a measure of structural damage, levels of matrix metalloproteinases (MMPs) and tissue inhibitors of metalloproteinases (TIMPs) are measured using gelatin zymography and immunoassays, respectively, as previously described (Gaggar et al., Eur Respir J. 2011 38(3): 721-727; Garratt et al., Eur Respir J. 2015 46(2):384-94). The amount of iron in the sputum is quantified by ICP-MS as previously described (Hunter et al., 2013). The amount of iron-binding proteins is assessed using immunoassays. Myeloperoxidase activity is also assayed as a measure of neutrophilic inflammation as previously described (Gaggar et al., 2011). 3-chlorotyrosine is measured as a biomarker of the potent oxidant hypochlorous acid. Levels are measured using stable isotope dilution gas chromatography with mass spectrometry (Gaggar et al., 2011). Protein carbonyls are measured as an indicator of reactive oxygen species (ROS) using a commercial immunoassay kit (Gaggar et al., 2011). Oxidative stress is assessed by measuring glutathione (GSSG and GSH) using immunoassays as previously described (Kettle et al., 2014). Gene expression of inflammatory and oxidative stress markers (e.g. IL-8, IL-6, TNFa) will also be monitored by Nanostring, and proteins will be measured by ELISA. Oxidative stress can also be measured via metabolites, such as molondialdehyde (colorimetric assay) or 8-isoprostane (ELISA). Iron will be measured by elemental analysis using laser ablation-inductively coupled plasma-mass spectrometry (LA-ICP-MS).

[7] = remark: listed apart in the source
Experimental: as §1
as §2, with “RNAlater®,” for “RNAlater,”
as §3, with “MBio. 2013” for “MBio 2013,”

[8] = tested on: P. aeruginosa; settings: after two weeks of treatment, 300 mg EDTA/day nebulised with tobramycin; sputum; FIG. 25
Source text: Patients were monitored for a further four weeks, bringing the total study time to 10 weeks.

[9] = remark: listed apart in the source
Experimental: A single centre, randomised, double blind, crossover study of cystic fibrosis subjects is carried out. Subjects are randomised for treatment with inhaled CaEDTA or saline (placebo) 2-4 times a day for two weeks.
Iron levels, inflammatory markers, MMP/TIMP and FEV1 are monitored as above. Myeloperoxidase activity are also assayed as a measure of neutrophilic inflammation as previously described (Gaggar et al., 2011). 3-chlorotyrosine is measured as a biomarker of the potent oxidant hypochlorous acid. Levels are measured using stable isotope dilution gas chromatography with mass spectrometry (Gaggar et al., 2011). Protein carbonyls are measured as an indicator of ROS using a commercial immunoassay kit (Gaggar et al., 2011).

[10] = EDTA group compared with placebo group

## O=C(O)CN(CCN(CC(=O)O)CC(=O)O)CC(=O)O [EDTA, ethylene diamine tetraacetic acid]
[1]; [10]
  gene expression of inflammatory markers (qPCR, sputum): mean reduction
  inflammatory markers in sputum: reduction
[1]; compared with placebo (carrier only)
  FEV1: increase
[1]; especially MMP-9 and TIMP-1
  balance between MMPs and TIMPs: change in the balance
[1]; human, in vivo
  iron levels in sputum: decrease
[2]
  effect on FEV1: no effect on FEV1
[3]; 2, 6 and 10 weeks after start of treatment, FIG. 26
  mean change in FEV1: clear improvement in lung function
[3]; mg EDTA/kg body weight, FIG. 27
  dose dependence of effect on lung function: dose-dependent effect on lung function
[4]
  treatment of bacterial infections by inhaled EDTA alone: does not treat bacterial infections
[5]
  bronchoconstriction: concentration-dependent bronchoconstriction
[6]; [10]
  inflammatory markers in sputum: reduction
[6]; compared with control patients
  FEV1: increase
  bacterial load in sputum: reduction
[6]; especially MMP-9 and TIMP-1
  balance between MMPs and TIMPs: change in the balance
[6]; human, in vivo
  iron levels in sputum: decrease
[7]; [10]
  gene expression of inflammatory markers (qPCR, sputum): mean reduction
  inflammatory markers in sputum: reduction
[7]; especially MMP-9 and TIMP-1
  balance between MMPs and TIMPs: change in the balance
[8]
  reduction in colony counts: > 400 fold
[9]; compared with placebo
  MMP/TIMP balance: altered
  levels of inflammatory markers: reduced levels
  levels of iron: reduced levels
  mean FEV1: increased
[9]; human, in vivo
  mean levels of carbonyls: lower mean levels
  mean levels of chlorotyrosine: lower mean levels
  myeloperoxidase activity: reduced

— patent US11382884B2, “Method for reducing lung infection” (priority 2017, dated 2022)
